Experimental data taken from the supplement of paper PMC11061612.

Tests used:
EW-11 (Ewing's Sarcoma) [1] = assay: Bliss excess, mean over the matrix (fraction); higher = more synergy
Outline: (§1)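 Bliss excess equals the observed combination effect minus the expected value EA + EB − EA·EB, where EA and EB are the effects of each agent alone. Combination Emax is the second-highest inhibition within the matrix. Inhibition was scaled from CellTiter-Glo 2.0 luminescence, with 0 set by vehicle wells and 1 by blank wells, after 72 hours of two-drug dosing of cells plated in 1536-well plates.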

[2] = tested on: ESS-1 (Other Solid Carcinomas); assay: as above
Outline: as §1

[3] = tested on: TGBC1TKB (Biliary Tract Carcinoma); assay: as above
Outline: as §1

[4] = tested on: HH (T-Cell Non-Hodgkin's Lymphoma); assay: as above
Outline: as §1

[5] = tested on: WSU-NHL (B-Cell Non-Hodgkin's Lymphoma); assay: as above
Outline: as §1

[6] = tested on: OVCAR-5 (Ovarian Carcinoma); assay: as above
Outline: as §1

[7] = tested on: HuCCT1 (Biliary Tract Carcinoma); assay: as above
Outline: as §1

[8] = tested on: LNZTA3WT4 (Low Grade Glioma); assay: as above
Outline: as §1

[9] = tested on: NCI-H524 (Small Cell Lung Carcinoma); assay: as above
Outline: as §1

A673 (Ewing's Sarcoma) [10] = assay: as above
Outline: as §1

[11] = tested on: YAPC (Pancreatic Carcinoma); assay: as above
Outline: as §1

MPP-89 (Mesothelioma) [12] = assay: as above
Outline: as §1

[13] = tested on: SNU-16 (Gastric Carcinoma); assay: as above
Outline: as §1

KS-1 (Glioblastoma) [14] = assay: as above
Outline: as §1

[15] = tested on: LS-123 (Colorectal Carcinoma); assay: as above
Outline: as §1

GAMG (Glioblastoma) [16] = assay: as above
Outline: as §1

[17] = tested on: SW1710 (Bladder Carcinoma); assay: as above
Outline: as §1

LOXIMVI (Melanoma) [18] = assay: as above
Outline: as §1

CAL-72 (Osteosarcoma) [19] = assay: as above
Outline: as §1

[20] = tested on: BE-13 (T-Lymphoblastic Leukemia); assay: as above
Outline: as §1

[21] = tested on: SAS (Oral Cavity Carcinoma); assay: as above
Outline: as §1

[22] = tested on: SNU-449 (Hepatocellular Carcinoma); assay: as above
Outline: as §1

[23] = tested on: KYAE-1 (Esophageal Adenocarcinoma); assay: as above
Outline: as §1

EW-11 (Ewing's Sarcoma) [24] = assay: combination Emax (second highest fraction inhibited in the dose matrix, 72 h); higher = more inhibition; extreme values may be limits of the assay
Outline: as §1

[25] = tested on: ESS-1 (Other Solid Carcinomas); assay: as above
Outline: as §1

[26] = tested on: TGBC1TKB (Biliary Tract Carcinoma); assay: as above
Outline: as §1

[27] = tested on: HH (T-Cell Non-Hodgkin's Lymphoma); assay: as above
Outline: as §1

[28] = tested on: WSU-NHL (B-Cell Non-Hodgkin's Lymphoma); assay: as above
Outline: as §1

[29] = tested on: OVCAR-5 (Ovarian Carcinoma); assay: as above
Outline: as §1

[30] = tested on: HuCCT1 (Biliary Tract Carcinoma); assay: as above
Outline: as §1

[31] = tested on: LNZTA3WT4 (Low Grade Glioma); assay: as above
Outline: as §1

[32] = tested on: NCI-H524 (Small Cell Lung Carcinoma); assay: as above
Outline: as §1

[33] = tested on: YAPC (Pancreatic Carcinoma); assay: as above
Outline: as §1

MPP-89 (Mesothelioma) [34] = assay: as above
Outline: as §1

[35] = tested on: SNU-16 (Gastric Carcinoma); assay: as above
Outline: as §1

[36] = tested on: LS-123 (Colorectal Carcinoma); assay: as above
Outline: as §1

GAMG (Glioblastoma) [37] = assay: as above
Outline: as §1

[38] = tested on: SW1710 (Bladder Carcinoma); assay: as above
Outline: as §1

LOXIMVI (Melanoma) [39] = assay: as above
Outline: as §1

CAL-72 (Osteosarcoma) [40] = assay: as above
Outline: as §1

[41] = tested on: BE-13 (T-Lymphoblastic Leukemia); assay: as above
Outline: as §1

[42] = tested on: SAS (Oral Cavity Carcinoma); assay: as above
Outline: as §1

[43] = tested on: SNU-449 (Hepatocellular Carcinoma); assay: as above
Outline: as §1

[44] = tested on: KYAE-1 (Esophageal Adenocarcinoma); assay: as above
Outline: as §1

A673 (Ewing's Sarcoma) [45] = assay: as above
Outline: as §1

KS-1 (Glioblastoma) [46] = assay: as above
Outline: as §1

C[C@@H]1COCCN1c1cc(C2([S@](C)(=N)=O)CC2)nc(-c2ccnc3[nH]ccc23)n1 [AZD6738] + Nc1ccn([C@@H]2O[C@H](CO)[C@@H](O)C2(F)F)c(=O)n1 [Gemcitabine] (first compound max 10 µM, 7x7, partner max 0.3 µM)
Bliss excess (EW-11 (Ewing's Sarcoma) [1]): -0.0094 | Bliss excess [2]: 0.0734 | Bliss excess [3]: 0.0524 | Bliss excess [4]: 0.0778 | Bliss excess [5]: 0.014 | Bliss excess [6]: -0.0407 | Bliss excess [7]: 0.0144 | Bliss excess [8]: 0.186 | Bliss excess [9]: 0.0064 | Bliss excess (A673 (Ewing's Sarcoma) [10]): 0.0144 | Bliss excess [11]: 0.0296 | Bliss excess (MPP-89 (Mesothelioma) [12]): 0.0348 | Bliss excess [13]: 0.0098 | Bliss excess (KS-1 (Glioblastoma) [14]): 0.0043 | Bliss excess [15]: 0.104 | Bliss excess (GAMG (Glioblastoma) [16]): 0.0615 | Bliss excess [17]: 0.0769 | Bliss excess (LOXIMVI (Melanoma) [18]): 0.0221 | Bliss excess (CAL-72 (Osteosarcoma) [19]): 0.0282 | Bliss excess [20]: 0.153 | Bliss excess [21]: 0.0762 | Bliss excess [22]: 0.0623 | Bliss excess [23]: -0.0077 | combination Emax (EW-11 (Ewing's Sarcoma) [24]): 0.833 | combination Emax [25]: 1 | combination Emax [26]: 0.583 | combination Emax [27]: 0.716 | combination Emax [28]: 0.993 | combination Emax [29]: 0.743 | combination Emax [30]: 0.779 | combination Emax [31]: 0.954 | combination Emax [32]: 0.994 | combination Emax [33]: 0.725 | combination Emax (MPP-89 (Mesothelioma) [34]): 0.63 | combination Emax [35]: 1 | combination Emax [36]: 0.705 | combination Emax (GAMG (Glioblastoma) [37]): 0.87 | combination Emax [38]: 0.655 | combination Emax (LOXIMVI (Melanoma) [39]): 0.92 | combination Emax (CAL-72 (Osteosarcoma) [40]): 0.897 | combination Emax [41]: 1 | combination Emax [42]: 0.991 | combination Emax [43]: 0.557 | combination Emax [44]: 0.0714

O=C(c1cc(Cc2n[nH]c(=O)c3ccccc23)ccc1F)N1CCN(C(=O)C2CC2)CC1 [Olaparib] + CC1(C)CCC(CN2CCN(c3ccc(C(=O)NS(=O)(=O)c4ccc(NCC5CCOCC5)c([N+](=O)[O-])c4)c(Oc4cnc5[nH]ccc5c4)c3)CC2)=C(c2ccc(Cl)cc2)C1 [Venetoclax] (first compound max 10 µM, 7x7, partner max 1 µM)
Bliss excess (EW-11 (Ewing's Sarcoma) [1]): 0.0371 | Bliss excess [2]: -0.0103 | Bliss excess [3]: -0.0666 | Bliss excess [4]: -0.0246 | Bliss excess [5]: 0.0238 | Bliss excess [6]: -0.061 | Bliss excess [7]: -0.0478 | Bliss excess [8]: -0.0739 | Bliss excess [9]: -0.0173 | Bliss excess (A673 (Ewing's Sarcoma) [10]): 0.0169 | Bliss excess [11]: -0.0282 | Bliss excess (MPP-89 (Mesothelioma) [12]): -0.0605 | Bliss excess [13]: 0.0258 | Bliss excess (KS-1 (Glioblastoma) [14]): -0.0442 | Bliss excess [15]: -0.0413 | Bliss excess (GAMG (Glioblastoma) [16]): -0.0303 | Bliss excess [17]: -0.0606 | Bliss excess (LOXIMVI (Melanoma) [18]): 0.0029 | Bliss excess (CAL-72 (Osteosarcoma) [19]): -0.0215 | Bliss excess [20]: -0.0238 | Bliss excess [21]: -0.0168 | Bliss excess [22]: -0.0418 | Bliss excess [23]: -0.0116 | combination Emax (EW-11 (Ewing's Sarcoma) [24]): 0.698 | combination Emax [25]: 0.467 | combination Emax [26]: 0.108 | combination Emax [27]: 0.165 | combination Emax [28]: 0.575 | combination Emax [29]: 0.0569 | combination Emax [30]: 0.0844 | combination Emax [31]: 0.0965 | combination Emax [32]: 0.206 | combination Emax (A673 (Ewing's Sarcoma) [45]): 0.501 | combination Emax [33]: 0.081 | combination Emax (MPP-89 (Mesothelioma) [34]): 0.0498 | combination Emax [35]: 0.607 | combination Emax (KS-1 (Glioblastoma) [46]): 0.0863 | combination Emax [36]: 0.191 | combination Emax (GAMG (Glioblastoma) [37]): 0.0955 | combination Emax [38]: 0.114 | combination Emax (LOXIMVI (Melanoma) [39]): 0.352 | combination Emax (CAL-72 (Osteosarcoma) [40]): 0.191 | combination Emax [41]: 0.315 | combination Emax [42]: 0.176 | combination Emax [43]: 0.0891 | combination Emax [44]: 0.154
